For this assay, the target named is T1, hCRTH2 (Homo sapiens, UniProt Q9Y5Y4).
T1 construct: expressed in transfected cells; host or cells: HEK (human embryonic kidney) cells expressing hCRTH2; membrane preparation
T1 sequence (Q9Y5Y4 1-395): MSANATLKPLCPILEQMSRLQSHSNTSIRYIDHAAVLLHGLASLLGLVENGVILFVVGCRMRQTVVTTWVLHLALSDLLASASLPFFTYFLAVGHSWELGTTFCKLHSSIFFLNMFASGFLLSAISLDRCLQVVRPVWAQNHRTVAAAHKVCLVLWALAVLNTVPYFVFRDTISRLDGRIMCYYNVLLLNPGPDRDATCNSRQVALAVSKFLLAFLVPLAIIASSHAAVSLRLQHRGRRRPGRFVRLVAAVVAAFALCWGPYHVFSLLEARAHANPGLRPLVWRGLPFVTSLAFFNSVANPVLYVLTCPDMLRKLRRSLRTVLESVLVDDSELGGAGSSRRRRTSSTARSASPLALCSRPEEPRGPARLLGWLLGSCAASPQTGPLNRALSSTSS
Kind of assay: Radioligand binding assay ([3H]PGD2 competition, HEK-hCRTH2 membranes). Particulars: [3H]PGD2 competition, Table B. The gist of the method:
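Displacement of 3.0 nM [3H]PGD2 from human CRTH2 expressed in HEK membranes was measured at room temperature over 60 min. Unlabelled PGD2 at 10 μM gave non-specific binding.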
Consider `O=C(O)CCCCc1nc2cc(C(=O)N[C@H]3CCOc4cc(Cl)ccc43)ccc2nc1-c1ccc(Cl)cc1` [compound 335, (S)-5-(7-((7-chlorochroman-4-yl)carbamoyl)-3-(4-chlorophenyl)quinoxalin-2-yl)pentanoic acid], for which the Ki was in the range of 2.1 to 20 nM.
With `CN(C(=O)c1ccc2nc(-c3ccc(Cl)cc3)c(CCCCC(=O)O)nc2c1)C1NC(=O)c2ccccc21` (stereo not drawn) [compound 336, 5-(3-(4-chlorophenyl)-7-(methyl(3-oxoisoindolin-1-yl)carbamoyl)quinoxalin-2-yl)pentanoic acid], the Ki lay in the range of 20.1 to 200 nM.
Compound `O=C(O)CCCCc1nc2cc(C(=O)N3CCC(N4CCCCC4)CC3)ccc2nc1-c1ccc(Cl)cc1` [compound 337, 5-(7-([1,4′-bipiperidine]-1′-carbonyl)-3 (4-chlorophenyl)quinoxalin-2-yl)pentanoic acid] gave a Ki of 20.1 to 200 nM.
`O=C(O)CCCCc1nc2cc(C(=O)N3CCC(n4ccc5ccccc54)CC3)ccc2nc1-c1ccc(Cl)cc1` [compound 338, 5-(7-(4-(1H-indol-1-yl)piperidine-l-carbonyl)-3-(4-chlorophenyl)quinoxalin-2-yl)pentanoic acid]: the inhibitory constant (Ki) lay within 2.1 to 20 nM.
`O=C(O)CCCCc1nc2cc(C(=O)N3CCC(N4CCCC4)CC3)ccc2nc1-c1ccc(Cl)cc1` [compound 339, 5-(3-(4-chlorophenyl)-7-(4-(pyrrolidin-1-yl)piperidine-1-carbonyl)quinoxalin-2-yl)pentanoic acid] gave a Ki of 20.1 to 200 nM.
The compound `O=C(O)CCCCc1nc2cc(C(=O)N3CCC4(CCOC4)CC3)ccc2nc1-c1ccc(Cl)cc1` [compound 340, 5-(3-(4-chlorophenyl)-7-(2-oxa-8-azaspiro[4.5]decane-8-carbonyl)quinoxalin-2-yl)pentanoic acid] gave an inhibition constant Ki of 2.1 to 20 nM.
With `O=C(O)CCCCc1nc2cc(C(=O)N3CCC(n4cncn4)CC3)ccc2nc1-c1ccc(Cl)cc1` [compound 341, 5-(7-(4-(1H-1,2,4-triazol-yl)piperidine-1-carbonyl)-3-(4-chlorophenyl)quinoxalin-2-yl)pentanoic acid], the inhibitory constant (Ki) is 2.1 to 20 nM.
As for `O=C(O)CCCCc1nc2cc(C(=O)N3CCC(n4cccn4)CC3)ccc2nc1-c1ccc(Cl)cc1` [compound 342, 5-(7-(4-(1H-pyrazol-1-yl)piperidine-1-carbonyl)-3-(4-chlorophenyl)quinoxalin-2-yl)pentanoic acid], the Ki was 2.1 to 20 nM.
To `O=C(O)CCCCc1nc2cc(C(=O)N3CCC4(CC3)COc3ccccc34)ccc2nc1-c1ccc(Cl)cc1` [compound 343, 5-(3--(4-chlorophenyl)-7-(2H-spiro[benzofuran-3,4′-piperidin]-1′-ylcarbonyl)quinoxalin-2-yl)pentanoic acid] belongs 2.1 to 20 nM; to `O=C(O)CCCCc1nc2cc(C(=O)N3CCC4(CC3)NC(=O)c3ccccc3O4)ccc2nc1-c1ccc(Cl)cc1` [compound 344, 5-(3-(4-chlorophenyl)-7-(4-oxo-3,4-dihydrospiro[benzo[e][1,3]oxazine-2,4′-piperidin]-1′-ylcarbonyl)quinoxalin-2-yl)pentanoic acid], 2.1 to 20 nM.
In turn, `O=C(O)CCCCc1nc2cc(C(=O)N3CC4CCCC(C3)C4c3ccccc3)ccc2nc1-c1ccc(Cl)cc1` [compound 345, 5-(3-(4-chlorophenyl)-7-((1R,5S,9r)-9-phenyl-3-azabicyclo[3.3.1]nonane-3-carbonyl)quinoxa1in-2-yl)pentanoic acid] had a Ki of 2.1 to 20 nM.
`Cn1cnc(C2CCN(C(=O)c3ccc4nc(-c5ccc(Cl)cc5)c(CCCCC(=O)O)nc4c3)CC2)c1` [compound 346, 5-(3-(4-chlorophenyl)-7-(4-(1-methyl-1H-imidazol-4-yl)piperidine-1-carbonyl)quinoxalin-2-yl)pentanoic acid]: the inhibition constant (Ki) lay in the range of 2.1 to 20 nM.
Next, `O=C(O)CCCCc1nc2cc(C(=O)N3CCc4oc(C5CC5)nc4C3)ccc2nc1-c1ccc(Cl)cc1` [compound 347, 5-(3-(4-chlorophenyl)-7-(2-cyclopropyl-4,5,6,7-tetrahydrooxazolo[4,5-c]pyridine-5-carbonyl)quinoxalin-2-yl)pentanoic acid]: 20.1 to 200 nM; `O=C(O)CCCCc1nc2cc(C(=O)N3CCC(n4ncc5ccccc54)CC3)ccc2nc1-c1ccc(Cl)cc1` [compound 348, 5-(7-(4-(1H-indazol-1-yl)piperidine-1-carbonyl)-3-(4-chlorophenyl)quinoxalin-2-yl)pentanoic acid]: 2.1 to 20 nM; `CN1CC2(CCN(C(=O)c3ccc4nc(-c5ccc(Cl)cc5)c(CCCCC(=O)O)nc4c3)CC2)CC1=O` [compound 349, 5-(3-(4-chlorophenyl)-7-(2-methyl-3-oxo-2,8-diazaspiro[4.5]decane-8-carbonyl)quinoxalin-2-yl)pentanoic acid]: 20.1 to 200 nM.
To `O=C(O)CCCCc1nc2cc(C(=O)N3CCN(c4ccccc4)C(=O)C3)ccc2nc1-c1ccccc1` [compound 350, 5-(7-(3-oxo-4-phenylpiperazine-1-carbonyl)-3-phenylquinoxalin-2-yl)pentanoic acid] belongs 20.1 to 200 nM; to `O=C(O)CCCCc1nc2cc(C(=O)N3CCN(c4ccc(F)cc4)CC3)ccc2nc1-c1ccccc1` [compound 351, 5-(7-(4-(4-fluorophenyl)piperazine-1-carbonyl)-3-phenylquinoxalin-2-yl)pentanoic acid], 2.1 to 20 nM; to `O=C(O)CCCCc1nc2cc(C(=O)NC3CC(=O)Nc4ccccc43)ccc2nc1-c1ccc(F)cc1` (stereo not drawn) [compound 352, 5-(3-(4-fluorophenyl)-7-((2-oxo-1,2,3,4-tetrahydroquinolin-4-yl)carbamoyl)quinoxalin-2-yl)pentanoic acid], 2.1 to 20 nM.
`O=C(O)CCCCc1nc2cc(C(=O)N3CCC4(CC3)CNC(=O)c3ccccc34)ccc2nc1-c1ccc(F)cc1` [compound 353, 5-(3-(4-fluorophenyl)-7-(1-oxo-2,3-dihydro-1H-spiro[isoquinoline-4,4′-piperidin]-1′-ylcarbonyl)quinoxalin-2-yl)pentanoic acid] yielded an inhibition constant Ki of 2.1 to 20 nM.
On to `O=C(O)CCCCc1nc2cc(C(=O)N[C@@H]3CCCc4ccncc43)ccc2nc1-c1ccc(F)cc1` [compound 354, (R)-5-(3-(4-fluorophenyl)-7-((5,6,7,8-tetrahydroisoquinolin-8-yl)carbamoyl)quinoxalin-2-yl)pentanoic acid], for which the Ki was in the range of 20.1 to 200 nM.
Consider `O=C(O)CCCCc1nc2cc(C(=O)N[C@@H]3CCSc4ccccc43)ccc2nc1-c1ccc(F)cc1` [compound 355, (R)-5-(3-(4-fluorophenyl)-7-(thiochroman-4-ylcarbamoyl)quinoxalin-2-yl)pentanoic acid], for which the Ki lay within 2.1 to 20 nM.
Regarding `O=C(O)CCCCc1nc2cc(C(=O)N3CCC(n4c(=O)[nH]c5ccccc54)CC3)ccc2nc1-c1ccc(F)cc1` [compound 356, 5-(3-(4-fluorophenyl)-7-(4-(2-oxo-2,3-dihydro-1H-benzo[d]imidazol-1-yl)piperidine-1-carbonyl)quinoxalin-2-yl)pentanoic acid], the Ki lay in the range of 20.1 to 200 nM.
Next, `O=C(O)CCCCc1nc2cc(C(=O)N3CCN(c4ccccn4)CC3)ccc2nc1-c1ccc(F)cc1` [compound 357, 5-(3-(4-fluorophenyl)-7-(4-(pyridin-2-yl)piperazine-1-carbonyl)quinoxalin-2-yl)pentanoic acid]: 2.1 to 20 nM; `N#Cc1cccnc1N1CCN(C(=O)c2ccc3nc(-c4ccc(F)cc4)c(CCCCC(=O)O)nc3c2)CC1` [compound 358, 5-(7-(4-(3-cyanopyridin-2-yl)piperazine-l-carbonyl)-3-(4-fluorophenyl)quinoxalin-2-yl)pentanoic acid]: 2.1 to 20 nM.
Regarding `N#Cc1ccccc1N1CCN(C(=O)c2ccc3nc(-c4ccc(F)cc4)c(CCCCC(=O)O)nc3c2)CC1` [compound 359, 5-(7-(4-(2-cyanophenyl)piperazine-1-carbonyl)-3-(4-fluorophenyl)quinoxalin-2-yl)pentanoic acid], the inhibitory constant (Ki) lay in the range of 2.1 to 20 nM.
To `O=C(O)CCCCc1nc2cc(C(=O)N3CCN(c4cnccn4)CC3)ccc2nc1-c1ccc(F)cc1` [compound 360, 5-(3-(4-fluorophenyl) 7-(4-(pyrazin-2-yl)piperazine-1-carbonyl)quinoxalin-2-yl)pentanoic acid] belongs 20.1 to 200 nM; to `COc1ccccc1C1CCN(C(=O)c2ccc3nc(-c4ccc(F)cc4)c(CCCCC(=O)O)nc3c2)CC1` [compound 361, 5-(3-(4-fluorophenyl)-7-(4-(2-methoxyphenyl)piperidine-1-carbonyl)quinoxalin-2-yl)pentanoic acid], 2.1 to 20 nM.
Next, `O=C(O)CCCCc1nc2cc(C(=O)N3CCC4(CC3)OCc3ccccc34)ccc2nc1-c1ccc(F)cc1` [compound 362, 5-(3-(4-fluorophenyl)-7-(3H-spiro[isobenzofuran-1,4′-piperidin]-1′-ylcarbonyl)quinoxalin-2-yl)pentanoic acid]: 2.1 to 20 nM; `O=C(O)CCCCc1nc2cc(C(=O)N3CCN(c4ccccc4C(F)(F)F)CC3)ccc2nc1-c1ccc(F)cc1` [compound 363, 5-(3-(4-fluorophenyl)-7-(4-(2-(trifluoromethyl)phenyl)piperazine-1-carbonyl)quinoxalin-2-yl)pentanoic acid]: 2.1 to 20 nM; `O=C(O)CCCCc1nc2cc(C(=O)N3CCN(c4ccccc4Cl)CC3)ccc2nc1-c1ccc(F)cc1` [compound 364, 5-(7-(4-(2-chlorophenyl)piperazine-1-carbonyl)-3-(4-fluorophenyl)quinoxalin-2-yl)pentanoic acid]: 2.1 to 20 nM.

These data come from patent US9469615B2, “Quinoxalines and AZA-quinoxalines as CRTH2 receptor modulators” (Merck Sharp & Dohme Corp., priority 2010, dated 2016).
